Where no end group is shown, it is not given here. [ ]: non-standard residue; d: D form. pGlu = O=C1CC[C@@H](C(=O)O)N1
Tests used:
Format in all cases: cell-based, human
PBMC [1] = test: IFN-γ ELISpot on PBMC of CD patients on day 6 after 3-day oats challenge; conditions: after 3-day oats challenge
From the text: (§1) Australian Caucasian HLA-DQ2.5^+ and/or HLA-DQ8^+ CD subjects were recruited by advertisement in the Coeliac Society of Victoria newsletter and all had biopsy-proven CD conforming to ESPGHAN criteria. Patients had been on strict gluten free diet for at least 4 weeks prior to commencing grain challenge. Patients underwent 3-day grain challenge with oats, barley, or combined wheat, barley, and rye muffins, and 6 days after commencement, blood was collected. Day 0 responses were not observed in the selection of patients tested, as described previously^8.
(§2) Oats challenge consisted of 100 g dry weight daily of one of three commercial brands of oats: one not tested for wheat contamination (Uncle Toby's; Oats #1), and two shown by R5 ELISA to contain less than 20 ppm wheat gluten (Tilquhilie Pudding; Oats #2 and Freedom Food; Oats #3). Barley challenge consisted of pearl barley (Ward McKenzie) cooked into a risotto (150 g dry weight daily) and the wheat challenge consisted of four 50 g slices of wheat bread daily (Baker's Delight white loaf cut to toasting thickness). The combined wheat, barley, and rye challenge consisted of muffins baked with wheat flour (White Wings), barley flour (Four Leaf Milling), and rye flour (Four Leaf Milling; 22-25 g dry weight each daily). A symptom diary based on a […] Likert scale was completed by participants daily from baseline until day 6.
(§3) Two avenin peptide libraries were utilized for epitope screening. These were designed using avenin sequences from GenBank and a customized algorithm, as previously described^9. The initial library consisted of 199 screening-grade 20 mers including all possible 12 mers (Mimotopes). This library was screened with and without tTG pre-treatment. The second library consisted of additional avenin sequences that were synthesized with glutamate substitution at sites predicted to be deamidated by published algorithms^10, 11 removing the requirement for tTG treatment. This library contained 369 screening-grade 20 mers, including all possible 12 mers (Pepscan). The second round avenin library contained wild-type and deamidated versions of the most immunogenic sequences (25 high quality 16 mers from Mimotopes). High quality peptides containing previously described immunogenic sequences from wheat, barley, and rye were used to test for cross-reactivity^8 (Pepscan). High quality hordein and avenin peptides for TCC testing and biochemical studies were ordered from Pepscan, Mimotopes, or GL Biochem.
(§4) Peripheral blood mononuclear cells (PBMC) were isolated from heparinized whole blood using Ficoll-Paque™ Plus density-gradient centrifugation (GE Healthcare). IFN-γ ELISpot (Mabtech) was set up as previously described^8.

PBMC [2] = test: IFN-γ ELISpot on PBMC of CD patients after 3-day barley challenge; conditions: after barley challenge
From the text: as §1, §2, §3, §4

Patient 2 TCC-01 = test: IFN-γ ELISpot with T cell clone; conditions: TCC Patient 2 TCC-01 (Table 5); mean no antigen 1.1
Method: as §4
(§5) Isolation of TCC from CD patients was carried out as previously described^8. Briefly, CFSE-labeled PBMC were incubated with antigen for 7 days in IMDM supplemented with 5% heat-inactivated pooled human serum (PHS), 2 mM GlutaMAX™, 100 μM MEM non-essential amino acids (both from Gibco, Invitrogen), and 50 μM 2-mercaptoethanol (Sigma). Proliferated cells were single-cell sorted into 96-well plates containing IL-2, IL-4, anti-CD3 mAb, irradiated feeder cells (allogeneic PBMC and JY-EBV). TCC were expanded and maintained in IL-2 and IL-4 and tested for specificity by ELISpot with irradiated HLA-matched PBMC as antigen-presenting cells. Expanded clones were tested for HLA-DQ restriction, TCR Vbeta usage, and with lysine scans to work out minimal epitopes. See Table 1 below for TCC and epitope information.

Patient 6 TCC-01 = test: IFN-γ ELISpot with T cell clone; conditions: TCC Patient 6 TCC-01 (Table 5); mean no antigen 2
Method: as §4, §5

Patient 14 TCC-01 = test: IFN-γ ELISpot with T cell clone; conditions: TCC Patient 14 TCC-01 (Table 5); mean no antigen 11.3, high background, SFU >25 considered as positive responses
Method: as §4, §5

Substance | IFN-γ ELISpot response (raw SFU) (PBMC [1]; patient P1, peptide 1 μg/ml) [SFU] | IFN-γ ELISpot response (raw SFU) (PBMC [1]; patient P1, peptide 10 μg/ml) [SFU] | IFN-γ ELISpot response (raw SFU) (PBMC [1]; patient P1, peptide 100 μg/ml) [SFU] | IFN-γ ELISpot response (raw SFU) (PBMC [1]; patient P2, peptide 1 μg/ml) [SFU] | IFN-γ ELISpot response (raw SFU) (PBMC [1]; patient P2, peptide 10 μg/ml) [SFU] | IFN-γ ELISpot response (raw SFU) (PBMC [1]; patient P2, peptide 100 μg/ml) [SFU] | significant SFU as a percentage of maximal peptide SFU (PBMC [1]; patient P2, peptide 100 μg/ml) | IFN-γ ELISpot response (raw SFU) (PBMC [1]; patient P3, peptide 1 μg/ml) [SFU] | IFN-γ ELISpot response (raw SFU) (PBMC [1]; patient P3, peptide 10 μg/ml) [SFU] | IFN-γ ELISpot response (raw SFU) (PBMC [1]; patient P3, peptide 100 μg/ml) [SFU] | IFN-γ ELISpot response (raw SFU) (PBMC [1]; patient P11, peptide 1 μg/ml) [SFU] | IFN-γ ELISpot response (raw SFU) (PBMC [1]; patient P11, peptide 10 μg/ml) [SFU] | IFN-γ ELISpot response (raw SFU) (PBMC [1]; patient P11, peptide 100 μg/ml) [SFU] | IFN-γ ELISpot response (raw SFU) (PBMC [1]; patient P12, peptide 1 μg/ml) [SFU] | IFN-γ ELISpot response (raw SFU) (PBMC [1]; patient P12, peptide 10 μg/ml) [SFU] | IFN-γ ELISpot response (raw SFU) (PBMC [1]; patient P12, peptide 100 μg/ml) [SFU] | IFN-γ ELISpot response (raw SFU) (PBMC [1]; patient P13, peptide 50 μg/ml) [SFU] | IFN-γ ELISpot response (raw SFU) (Patient 2 TCC-01) [SFU] | IFN-γ ELISpot response (raw SFU) (Patient 6 TCC-01) [SFU] | IFN-γ ELISpot response (raw SFU) (Patient 14 TCC-01) [SFU] | further results
QYQPYPEQEQPILQQQ [partially deamidated avenin peptide containing DQ2.5-ave-1c] | 11 | 33 | 11 | 6 | 34 | 38 | *** (***: >70%) | 19 | 26 | 18 | 3 | 41 | 50 | 1 | 39 | 31 | 4 | 288 | 5 | 21 | significant SFU as a percentage of maximal peptide SFU (PBMC [1]; patient P1, peptide 1 μg/ml): * (*: 20-40%); significant SFU as a percentage of maximal peptide SFU (PBMC [1]; patient P1, peptide 10 μg/ml): *** (***: >70%); significant SFU as a percentage of maximal peptide SFU (PBMC [1]; patient P1, peptide 100 μg/ml): * (*: 20-40%); significant SFU as a percentage of maximal peptide SFU (PBMC [1]; patient P2, peptide 10 μg/ml): ** (**: 40-70%); significant SFU as a percentage of maximal peptide SFU (PBMC [1]; patient P3, peptide 1 μg/ml): * (*: 20-40%); significant SFU as a percentage of maximal peptide SFU (PBMC [1]; patient P3, peptide 10 μg/ml): ** (**: 40-70%); significant SFU as a percentage of maximal peptide SFU (PBMC [1]; patient P3, peptide 100 μg/ml): * (*: 20-40%); significant SFU as a percentage of maximal peptide SFU (PBMC [1]; patient P11, peptide 10 μg/ml): *** (***: >70%); significant SFU as a percentage of maximal peptide SFU (PBMC [1]; patient P11, peptide 100 μg/ml): *** (***: >70%); significant SFU as a percentage of maximal peptide SFU (PBMC [1]; patient P12, peptide 10 μg/ml): ** (**: 40-70%); significant SFU as a percentage of maximal peptide SFU (PBMC [1]; patient P12, peptide 100 μg/ml): ** (**: 40-70%); IFN-γ ELISpot response (raw SFU) (PBMC [2]; Patient 1, peptide 50 μg/ml): 58 SFU; significant SFU as a percentage of maximal peptide SFU (PBMC [2]; Patient 1, peptide 50 μg/ml): ^^ (^^: 10-20%); IFN-γ ELISpot response (raw SFU) (PBMC [2]; Patient 2, peptide 50 μg/ml): 220 SFU; significant SFU as a percentage of maximal peptide SFU (PBMC [2]; Patient 2, peptide 50 μg/ml): *** (***: >70%); IFN-γ ELISpot response (raw SFU) (PBMC [2]; Patient 3, peptide 50 μg/ml): 34 SFU; significant SFU as a percentage of maximal peptide SFU (PBMC [2]; Patient 3, peptide 50 μg/ml): * (*: 20-40%)
pEPEQPFPEQPQQII ([pGlu]PEQPFPEQPQQII) [rye peptide, AAB58403.1 (187-200) [Q187 to pyroglutamate, Q189 to E, Q194 to E], reference compound] | – | – | – | – | – | – | – | – | – | – | – | – | – | – | – | – | – | 0 | 0 | 58 | –
pEQPFPQPEQPQLPF ([pGlu]QPFPQPEQPQLPF) [wheat peptide, AAK84772.1 (126-139) [Q126 to pyroglutamate, Q133 to E], reference compound] | – | – | – | – | – | – | – | – | – | – | – | – | – | – | – | – | – | 4 | 23 | 14 | –
SEQYQPYPEQQQPFVQ [avenin peptide, wild-type] | 2 | 2 | 4 | 4 | 1 | 16 | * (*: 20-40%) | 1 | 2 | 4 | 0 | 0 | 0 | 0 | 1 | 4 | 1 | 100 | 1 | 11 | –
PQPFPEQPIPEQPQPY [barley peptide, 1103203A (27-42) [Q32 to E, Q37 to E]] | – | – | – | – | – | – | – | – | – | – | – | – | – | – | – | – | – | 1 | 60 | 38 | –
